Source: patent US4762840A, “Pyrimido[2,1-b]benzothiazoles having antiallergic activity” (Roussel Uclaf, priority 1984, dated 1988)

test system: lungs; test: Antigen-induced elevation of lung perfusion pressure (isolated perfused sensitized lung, ovalbumen); design: species or system guinea pig (Dunkin Hartley); settings: Cavia porcellus; perfused lungs of ovalbumen-sensitized guinea pigs; compound in krebs fluid 30 minutes prior to second antigen dose (15 μg ovalbumen); at least four lungs per concentration; read-out: IC50 (inhibition of antigen induced broncho-constriction)
Protocol: Antigen-induced elevation of lung perfusion pressure
Male Dunkin Hartley guinea pigs (Porcellus) weighing between 450-700 g were used (four per test concentration) and were housed in cages. The animals were sensitized by two weekly exposures to 1% W/V aerosol ovalbumen. The animals were anaesthetized with 2.5 mg/kg diazepam i.p. and 1 ml/kg Hyponorm i.m. Following anaethesia, the animals were exsanguinated by severing both carotid arteries and the chest was opened and the lungs removed, split into two at the carina and both cannulated via the main lobar bronchus and connected to a perfusion system. The lungs were perfused with aerated krebs fluid (95% O2 :5% CO2) at 37° C. and 5 μg in 0.1 ml Ovalbumen was injected through an injection port proximal to each lung. Elevation of perfusion pressure by the antigen was recorded and sixty minutes later, 15 μg of ovalbumen were administered. The test compounds were added to the krebs fluid reservoir thirty minutes prior to the second antigen dose. For each weekly batch of animals used, control measurements were made without treatment (n=10 ). The second antigen response was expressed as a percentage of the first. For each test, at least four lungs from four different animals were used per concentration. The percentage inhibition of antigen induced broncho-constriction was calculated.

Row | Structure (SMILES) | IC50 [µM]
1 | CC(C(=O)OC(C)(C)C)c1ccc2c(c1)sc1nc(=O)cc(-c3ccccc3)n12 (stereo not drawn) [Example 39, t-Butyl α-methyl-4-phenyl-2-oxo-2H-pyrimido[2,1-b]benzothiazole-8-acetate] | 0.1
2 | CCOC(=O)C(CC)(CC)c1ccc2c(c1)sc1nc(=O)cc(-c3ccccc3)n12 [Example 40, Ethyl α,α-diethyl-4-phenyl-2-oxo-2H-pyrimido[2,1-b]benzothiazole-8-acetate] | 10 to 100
3 | CCCC(CC)(C(=O)OCC)c1ccc2c(c1)sc1nc(=O)cc(-c3ccccc3)n12 (stereo not drawn) [Example 41, Ethyl α-ethyl-α-propyl-4-phenyl-2-oxo-2H-pyrimido[2,1-b]benzothiazole-8-acetate] | 10 to 100
4 | CCCCC(C)(C(=O)OCC)c1ccc2c(c1)sc1nc(=O)cc(-c3ccccc3)n12 (stereo not drawn) [Example 42, Ethyl α-butyl-α-methyl-4-phenyl-2-oxo-2H-pyrimido[2,1-b]benzothiazole-8-acetate] | 10 to 100
5 | CC(C(=O)OCC(C)(C)C)c1ccc2c(c1)sc1nc(=O)cc(-c3ccccc3)n12 (stereo not drawn) [Example 43, 2,2-Dimethylpropyl α-methyl-4-phenyl-2-oxo-2H-pyrimido[2,1-b]benzothiazole-8-acetate] | 0.1
6 | CN(C)C(=O)Cc1ccc2c(c1)sc1nc(=O)cc(-c3ccccc3)n12 [Example 44, N,N-dimethyl-2-oxo-4-phenyl-2H-pyrimido[2,1-b]benzothiazole-8-acetamide] | 10 to 100
7 | CCNC(=O)Cc1ccc2c(c1)sc1nc(=O)cc(-c3ccccc3)n12 [Example 45, N-ethyl-2-oxo-4-phenyl-2H-pyrimido[2,1-b]benzothiazole-8-acetamide] | 10 to 100
8 | O=C(Cc1ccc2c(c1)sc1nc(=O)cc(-c3ccccc3)n12)N1CCOCC1 [Example 46, 1-(N-morpholino)-2-(2-oxo-4-phenyl-2H-pyrimido[2,1-b]benzothiazole-8-yl)-ethanone] | > 100
9 | CCN(CC)C(=O)Cc1ccc2c(c1)sc1nc(=O)cc(-c3ccccc3)n12 [Example 47, N,N-diethyl-2-oxo-4-phenyl-2H-pyrimido-[2,1-b]benzothiazole-8-acetamide] | 10
10 | O=C(Cc1ccc2c(c1)sc1nc(=O)cc(-c3ccccc3)n12)N1CCCCC1 [Example 48, 1-(N-piperidino)-2-(2-oxo-4-phenyl-2H-pyrimido[2,1-b]benzothiazole-8-yl)-ethanone] | 10 to 100
11 | CC(C(=O)OC1(C)CCCCC1)c1ccc2c(c1)sc1nc(=O)cc(-c3ccccc3)n12 (stereo not drawn) [Example 49, 1-Methylcyclohexyl α-methyl-2-oxo-4-phenyl-2H-pyrimido[2,1-b]benzothiazole-8-acetate] | 1 to 10
12 | CC(C(=O)OC12CC3CC(CC(C3)C1)C2)c1ccc2c(c1)sc1nc(=O)cc(-c3ccccc3)n12 (stereo not drawn) [Example 50, 1-Adamantyl α-methyl-2-oxo-4-phenyl-2H-pyrimido[2,1-b]benzothiazole-8-acetate] | ≤ 1
